The text below walks through data of US6673938B1, “Substituted pyridine herbicides” (Syngenta Participations AG, priority 1998, dated 2004).

The structures appear in SMILES notation.

The test deals with Monocotyledonous and dicotyledonous test plants. In words: Post-emergence herbicidal action. The class given is in vivo. The note with it: evaluated after approximately 18 days; for Post-emergence action, Ipomoea / Post-emergence action, Lolium / Post-emergence action, Setaria / Post-emergence action, Sinapis / Post-emergence action, Solanum / Post-emergence action, Stellaria: 2000 g/ha, sprayed in 4- to 6-leaf stage, nine-step scale; for Post-emergence action: Abutilon (score, nine-step scale) / Post-emergence action: Chenop. (score, nine-step scale) / Post-emergence action: Digitaria (score, nine-step scale) / Post-emergence action: Echino. (score, nine-step scale) / Post-emergence action: Ipopur. (score, nine-step scale) / Post-emergence action: Panicum (score, nine-step scale) / Post-emergence action: Xanth. (score, nine-step scale): 250 g/ha, sprayed at 4- to 6-leaf stage. As for the experimental part:
Monocotyledonous and dicotyledonous test plants are grown in the greenhouse in plastic pots containing standard soil, and, in the 4- to 6-leaf stage, sprayed with an aqueous suspension of the test substances of the formula I prepared with a 25% wettable powder (Example F3, b) in accordance with WO 97/34485) or with an emulsion of the test substances of the formula I prepared with a 25% emulsion concentrate (Example F1, c) in accordance with WO 97/34485), corresponding to a rate of 2 kg of a.i./ha or 250 g of a.i./ha (500 l of water/ha). The test plants are subsequently grown on in the greenhouse under optimal conditions. After a test period of approximately 18 days, the test is evaluated with reference to a nine-step scale (1=complete damage, 9=no effect). Score figures of 1 to 4 (in particular 1 to 3) mean a good to very good herbicidal action. In this test, the compounds of the formula I show a potent herbicidal action.

`Cc1nc(C(F)(F)C(F)(F)C(F)(F)F)ccc1C(=O)C1=C(O)CCCC1=O` [Compound A64-B1]: the “Post-emergence action, Ipomoea” value came to 2; the “Post-emergence action, Lolium” value was 3; the “Post-emergence action, Setaria” value amounted to 4; the “Post-emergence action, Sinapis” value is on record as 1. In addition, the “Post-emergence action, Solanum” value worked out at 1 and the “Post-emergence action, Stellaria” value is on record as 2.

Take `COCc1nc(C(F)(F)F)ccc1C(=O)C1=C(O)CCC=C(C)C1=O` [Compound A8-F5]: the “Post-emergence action: Abutilon (score, nine-step scale)” value (shortened to “Post-emergence action: Abutilon”) is recorded as 3; the “Post-emergence action: Chenop. (score, nine-step scale)” value was 3; the “Post-emergence action: Digitaria (score, nine-step scale)” value (“Post-emergence action: Digitaria” for short) worked out at 3; the “Post-emergence action: Echino. (score, nine-step scale)” value was 4. Also, the “Post-emergence action: Ipopur. (score, nine-step scale)” value was 3; the “Post-emergence action: Panicum (score, nine-step scale)” value (“Post-emergence action: Panicum” for short) is on record as 4; the “Post-emergence action: Xanth. (score, nine-step scale)” value amounted to 3.

For `Cc1nc(C(F)(F)F)ccc1C(=O)C1=C(O)C(C(C)C)CCC1=O` (stereo not drawn) [Compound A2-B5], the “Post-emergence action, Ipomoea” value is given as 1; the “Post-emergence action, Lolium” value came out at 2; the “Post-emergence action, Setaria” value stood at 2; the “Post-emergence action, Sinapis” value came out at 1. For the same compound, the “Post-emergence action, Solanum” value stood at 2 and the “Post-emergence action, Stellaria” value is given as 2.

In the case of `Cc1c(C(=O)C2=C(O)CCCC2=O)ccc(C(F)(F)F)[n+]1[O-]` [Compound A1210-B1, 3-Hydroxy-2-(2-methyl-1-oxy-6-trifluoromethylpyridine-3-carbonyl)cyclohex-2-enone], the “Post-emergence action: Abutilon” value came out at 2; the “Post-emergence action: Chenop. (score, nine-step scale)” value is 1; the “Post-emergence action: Digitaria” value is recorded as 2; the “Post-emergence action: Echino. (score, nine-step scale)” value is 2. The “Post-emergence action: Ipopur. (score, nine-step scale)” value is 2; the “Post-emergence action: Panicum” value amounted to 2; the “Post-emergence action: Xanth. (score, nine-step scale)” value is on record as 2.

As to `CSC1(C)CCC(=O)C(C(=O)c2ccc(C(F)(F)F)nc2C)=C1O` (stereo not drawn) [Compound A2-B29], the “Post-emergence action, Ipomoea” value is on record as 2; the “Post-emergence action, Lolium” value was 3; the “Post-emergence action, Setaria” value is given as 2; the “Post-emergence action, Sinapis” value came to 1. In addition, the “Post-emergence action, Solanum” value came to 2 and the “Post-emergence action, Stellaria” value turned out to be 2.

Consider `COC(=O)C1C(O)=C(C(=O)c2ccc(C(F)(F)F)nc2C)C(=O)CC1(C)C` (stereo not drawn) [Compound A2-B1094], for which the “Post-emergence action: Abutilon” value is reported as 3; the “Post-emergence action: Chenop. (score, nine-step scale)” value was found to be 2; the “Post-emergence action: Digitaria” value is recorded as 3; the “Post-emergence action: Echino. (score, nine-step scale)” value was 2. Moreover, the “Post-emergence action: Ipopur. (score, nine-step scale)” value turned out to be 3; the “Post-emergence action: Panicum” value is 2; the “Post-emergence action: Xanth. (score, nine-step scale)” value was determined as 3.

In the case of `CC1(C)CCC(=O)C(C(=O)c2ccc(C(F)(F)F)nc2C2CC2)=C1O` [Compound A6-B24], the “Post-emergence action, Ipomoea” value stood at 1; the “Post-emergence action, Lolium” value worked out at 3; the “Post-emergence action, Setaria” value is 2; the “Post-emergence action, Sinapis” value came out at 1. Further, the “Post-emergence action, Solanum” value is 1 and the “Post-emergence action, Stellaria” value was 2.

Take `CCCc1nc(C(F)(F)F)ccc1C(=O)C1=C(O)C(C)(C)CCC1=O` [Compound A7-B24]: the “Post-emergence action, Ipomoea” value stood at 1; the “Post-emergence action, Lolium” value is 2; the “Post-emergence action, Setaria” value was determined as 2; the “Post-emergence action, Sinapis” value is on record as 1. Moreover, the “Post-emergence action, Solanum” value turned out to be 2 and the “Post-emergence action, Stellaria” value is 2.

Turning to `COCc1nc(C(F)(F)F)ccc1C(=O)C1=C(O)C(C)C(C)CC1=O` (stereo not drawn) [Compound A8-B134], the “Post-emergence action: Abutilon” value came out at 2; the “Post-emergence action: Chenop. (score, nine-step scale)” value is given as 2; the “Post-emergence action: Digitaria” value was 3; the “Post-emergence action: Echino. (score, nine-step scale)” value worked out at 3. Moreover, the “Post-emergence action: Ipopur. (score, nine-step scale)” value is listed as 3; the “Post-emergence action: Panicum” value is reported as 3; the “Post-emergence action: Xanth. (score, nine-step scale)” value was 3.

For the compound `CCC1(CC)CCC(=O)C(C(=O)c2ccc(C(F)(F)F)nc2C)=C1O` [Compound A2-B112], the “Post-emergence action, Ipomoea” value worked out at 2; the “Post-emergence action, Lolium” value is listed as 3; the “Post-emergence action, Setaria” value came out at 2; the “Post-emergence action, Sinapis” value stood at 1. Also, the “Post-emergence action, Solanum” value came to 2 and the “Post-emergence action, Stellaria” value was 2.

On to `COCc1nc(C(F)(F)F)ccc1C(=O)C1=C(O)CC(C)CC1=O` (stereo not drawn) [Compound A8-B133], for which the “Post-emergence action, Ipomoea” value is recorded as 2; the “Post-emergence action, Lolium” value is on record as 4; the “Post-emergence action, Setaria” value was 2; the “Post-emergence action, Sinapis” value came to 1. The “Post-emergence action, Solanum” value is given as 2 and the “Post-emergence action, Stellaria” value worked out at 2.

For the compound `CC1=CCCC(O)=C(C(=O)c2ccc(C(F)(F)F)nc2C)C1=O` [Compound A2-F5, 3-Hydroxy-7-methyl-2-(2-methyl-6-trifluoromethyloyridine-3-carbonyl)cyclohepta-2,6-dienone], the “Post-emergence action: Abutilon” value turned out to be 3; the “Post-emergence action: Chenop. (score, nine-step scale)” value is 3; the “Post-emergence action: Digitaria” value is given as 3; the “Post-emergence action: Echino. (score, nine-step scale)” value is 3. The “Post-emergence action: Ipopur. (score, nine-step scale)” value is 4; the “Post-emergence action: Panicum” value was found to be 3; the “Post-emergence action: Xanth. (score, nine-step scale)” value amounted to 3.

Take `Cc1nc(C(F)(F)F)ccc1C(=O)C1=C(O)CC(c2ccccc2)CC1=O` (stereo not drawn) [Compound A2-B1058]: the “Post-emergence action, Ipomoea” value was determined as 1; the “Post-emergence action, Lolium” value amounted to 2; the “Post-emergence action, Setaria” value came out at 4; the “Post-emergence action, Sinapis” value is given as 1. In addition, the “Post-emergence action, Solanum” value stood at 2 and the “Post-emergence action, Stellaria” value is 2.

In the case of `CCSC1(CC)CC(C)C(=O)C(C(=O)c2ccc(C(F)(F)F)nc2C)=C1O` (stereo not drawn) [Compound A2-B1091], the “Post-emergence action: Abutilon” value came to 3; the “Post-emergence action: Chenop. (score, nine-step scale)” value came to 3; the “Post-emergence action: Digitaria” value is 4; the “Post-emergence action: Echino. (score, nine-step scale)” value is 2. For the same compound, the “Post-emergence action: Ipopur. (score, nine-step scale)” value is recorded as 3; the “Post-emergence action: Panicum” value is 4; the “Post-emergence action: Xanth. (score, nine-step scale)” value is recorded as 4.

`Cc1nc(C(F)(F)F)ccc1C(=O)C1=C(O)CCC2(CCOC2=O)C1=O` (stereo not drawn) [Compound A2-E16]: the “Post-emergence action, Ipomoea” value worked out at 2; the “Post-emergence action, Lolium” value is reported as 3; the “Post-emergence action, Setaria” value was determined as 2; the “Post-emergence action, Sinapis” value stood at 2. In addition, the “Post-emergence action, Solanum” value amounted to 2 and the “Post-emergence action, Stellaria” value turned out to be 2.

On to `Cc1nc(C(F)(F)F)ccc1C(=O)C1=C(O)C2CC2C(C)([S+](C)[O-])C1=O` (stereo not drawn) [Compound A2-D114, 5-Hydroxy-2-methanesulfinyl-2-methyl-4-(2-methyl-6-trifluoromethylpyridine-3-carbonyl)bicyclo[4.1.0]hept-4-en-3-one], for which the “Post-emergence action, Ipomoea” value was determined as 2; the “Post-emergence action, Lolium” value is on record as 1; the “Post-emergence action, Setaria” value is listed as 1; the “Post-emergence action, Sinapis” value is reported as 1. In addition, the “Post-emergence action, Solanum” value is given as 1 and the “Post-emergence action, Stellaria” value was 1.

Regarding `CCCC1(C)CC(C)C(=O)C(C(=O)c2ccc(C(F)(F)F)nc2C)=C1O` (stereo not drawn) [Compound A2-B70], the “Post-emergence action, Ipomoea” value is recorded as 3; the “Post-emergence action, Lolium” value was 4; the “Post-emergence action, Setaria” value amounted to 3; the “Post-emergence action, Sinapis” value was found to be 1. The “Post-emergence action, Solanum” value is given as 2 and the “Post-emergence action, Stellaria” value was determined as 2.

`CCN(CC)CC.Cc1nc(C(F)(F)F)ccc1C(=O)C1=C(O)CC(C)CC1=O` (stereo not drawn) [Compound A2-B1101]: the “Post-emergence action, Ipomoea” value is given as 2; the “Post-emergence action, Lolium” value is given as 2; the “Post-emergence action, Setaria” value stood at 2; the “Post-emergence action, Sinapis” value came out at 1. Moreover, the “Post-emergence action, Solanum” value is 1 and the “Post-emergence action, Stellaria” value turned out to be 3.
